# Assay results published in patent publication US5508266A, “Gem-disubstituted amino acid derivatives” (Ciba-Geigy Corporation, priority 1994, dated 1996).
# Assays:
# [1] = target: T1, neutral endopeptidase (NEP, EC 3.4.24.11) (Rattus norvegicus, UniProt P07861); assay: GAAP in vitro assay of neutral endopeptidase (rat kidney cortex membranes); format: biochemical; conditions: substrate glutaryl-Ala-Ala-Phe-2-naphthylamide 500 μM, pH 7.4 at 25° C.
# T1 construct: 4.2 μg of protein (rat kidney cortex membranes prepared by method of Maeda et at, 1983); from tissue; host or cells: rat kidney cortex membranes
# T1 sequence (P07861 1-750): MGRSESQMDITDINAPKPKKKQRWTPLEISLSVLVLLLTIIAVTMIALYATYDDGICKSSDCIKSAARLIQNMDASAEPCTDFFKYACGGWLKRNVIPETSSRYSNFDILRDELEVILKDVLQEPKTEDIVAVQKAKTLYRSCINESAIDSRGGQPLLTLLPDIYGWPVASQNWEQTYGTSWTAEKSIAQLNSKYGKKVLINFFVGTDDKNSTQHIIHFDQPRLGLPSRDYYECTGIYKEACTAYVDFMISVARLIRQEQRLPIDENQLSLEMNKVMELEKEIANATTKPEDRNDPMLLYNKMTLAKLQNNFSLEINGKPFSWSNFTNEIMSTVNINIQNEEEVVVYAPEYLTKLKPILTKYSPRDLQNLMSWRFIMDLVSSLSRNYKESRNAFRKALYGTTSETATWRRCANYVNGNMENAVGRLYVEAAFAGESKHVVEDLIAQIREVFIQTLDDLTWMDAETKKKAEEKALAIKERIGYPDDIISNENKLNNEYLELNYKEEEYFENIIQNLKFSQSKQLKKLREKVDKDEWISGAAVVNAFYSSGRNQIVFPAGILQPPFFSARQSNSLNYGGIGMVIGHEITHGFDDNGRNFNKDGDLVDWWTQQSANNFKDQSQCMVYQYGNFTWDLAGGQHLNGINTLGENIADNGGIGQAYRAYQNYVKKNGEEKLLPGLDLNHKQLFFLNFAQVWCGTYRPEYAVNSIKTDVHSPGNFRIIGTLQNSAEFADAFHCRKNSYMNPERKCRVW
# Protocol: In vitro testing is most appropriate for the free carboxylic acids of the invention. The test compound is dissolved in dimethyl sulfoxide, ethanol, or 0.25M sodium bicarbonate solution, and the solution is diluted with buffer to the desired concentration.
# The in vitro inhibition of neutral endopeptidase (NEP, EC 3.4.24.11) can be determined as follows:
# Neutral endopeptidase 3.4.24.11 activity is determined by the hydrolysis of the substrate glutaryl-Ala-Ala-Phe-2-naphthylamide (GAAP) using a modified procedure of Orlowski and Wilk (1981). The incubation mixture (total volume 125 μl) contains 4.2 μg of protein (rat kidney cortex membranes prepared by method of Maeda et at, 1983), 50 mM tris buffer, pH 7.4 at 25° C., 500 μM substrate (final concentration), and leucine aminopeptidase M (2.5 μg). The mixture is incubated for 10 minutes at 25° C. and 100 μl of fast garnet (250 μg fast garnet/ml of 10% Tween 20 in 1M sodium acetate, pH 4.2) is added. Enzyme activity is measured spectrophotometrically at 540 nm. One unit of NEP 24.11 activity is defined as 1 nmol of 2-naphthylamine released per minute at 25° C. at pH 7.4. IC50 values are determined, i.e. the concentration of test compound required for 50% inhibition of the release of 2-naphthylamine.
# [2] = target: T2, angiotensin converting enzyme (Rattus norvegicus, UniProt P47820); assay: Inhibition of angiotensin I induced pressor response in normotensive rats; format: in vivo; conditions: 10 mg/Kg i.v., male normotensive anesthetized rats, 300 ng/kg angiotensin I i.v. challenge
# T2 construct: from tissue; host or cells: whole animal: male, normotensive rats
# T2 sequence (P47820 36-1313): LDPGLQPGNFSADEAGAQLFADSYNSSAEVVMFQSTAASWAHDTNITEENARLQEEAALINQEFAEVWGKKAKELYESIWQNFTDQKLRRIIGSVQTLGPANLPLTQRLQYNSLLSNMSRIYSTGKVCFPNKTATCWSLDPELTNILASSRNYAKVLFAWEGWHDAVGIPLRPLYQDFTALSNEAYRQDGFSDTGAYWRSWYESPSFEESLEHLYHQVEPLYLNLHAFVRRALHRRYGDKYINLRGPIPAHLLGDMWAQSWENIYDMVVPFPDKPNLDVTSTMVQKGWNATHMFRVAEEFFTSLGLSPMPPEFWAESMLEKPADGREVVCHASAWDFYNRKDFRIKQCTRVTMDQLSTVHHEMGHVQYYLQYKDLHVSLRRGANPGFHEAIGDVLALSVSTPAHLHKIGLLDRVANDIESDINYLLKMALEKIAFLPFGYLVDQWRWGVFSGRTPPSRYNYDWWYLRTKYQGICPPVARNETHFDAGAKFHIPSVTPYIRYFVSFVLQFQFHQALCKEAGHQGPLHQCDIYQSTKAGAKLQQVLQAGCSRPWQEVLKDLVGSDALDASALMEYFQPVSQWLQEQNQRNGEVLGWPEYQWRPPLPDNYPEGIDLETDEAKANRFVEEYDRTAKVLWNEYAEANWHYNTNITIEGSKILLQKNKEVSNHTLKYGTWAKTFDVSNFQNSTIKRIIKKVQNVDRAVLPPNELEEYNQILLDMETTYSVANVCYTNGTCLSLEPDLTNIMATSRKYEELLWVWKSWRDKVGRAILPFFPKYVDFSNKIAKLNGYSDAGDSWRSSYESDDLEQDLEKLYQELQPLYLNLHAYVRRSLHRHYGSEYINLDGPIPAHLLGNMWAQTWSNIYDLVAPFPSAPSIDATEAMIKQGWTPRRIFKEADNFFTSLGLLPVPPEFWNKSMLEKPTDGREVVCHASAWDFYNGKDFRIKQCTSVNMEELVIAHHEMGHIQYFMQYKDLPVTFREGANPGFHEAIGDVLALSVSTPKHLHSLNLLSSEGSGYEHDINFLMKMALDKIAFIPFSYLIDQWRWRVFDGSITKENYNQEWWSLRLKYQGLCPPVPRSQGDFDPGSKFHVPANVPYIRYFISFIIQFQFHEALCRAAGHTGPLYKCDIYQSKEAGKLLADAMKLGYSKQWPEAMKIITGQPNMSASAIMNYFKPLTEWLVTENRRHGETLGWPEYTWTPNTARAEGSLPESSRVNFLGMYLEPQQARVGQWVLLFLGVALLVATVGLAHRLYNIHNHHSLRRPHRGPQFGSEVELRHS
# Protocol: The in vivo test for intravenously administered compounds is performed with male, normotensive rats, which are anesthetized with sodium metofan. A femoral artery and femoral vein are cannulated respectively for direct blood pressure measurement on i.v. administration of angiotensin I and i.v. or p.o. administration of a compound of this invention. After the basal blood pressure is stabilized, pressor responses to 3 challenges of 300 ng/kg angiotensin I i.v., at 15 minute intervals, are obtained. Such pressure responses are usually again obtained at 15, 30, 60 and 90 minutes, and then every hour up to 6 hours after i.v. or p.o. administration of the compound to be tested, and compared with the initial responses. Any observed decrease of said pressor response is an indication of Angiotensin I converting enzyme inhibition.
smiles,measurement,setting,value
"CC(C)[C@H](S)C(=O)NC(C)(C)C(=O)N[C@@H](Cc1ccc(O)cc1)C(=O)O [Example 2, N-[2-(2(S)-mercapto-3-methyl-1-oxobutylamino)-2-methyl-1-oxopropyl]-L-tyrosine]",IC50,[1],~9.2 nM
same,duration of inhibition of the Angiotensin I induced pressor response,[2],6 h
